Data taken from paper PMC6268373, “Systematic Study of the Physicochemical Properties of a Homologous Series of Aminobisphosphonates” (Molecules, 2012).
Converted amounts (≈) assume the structure as drawn.

Columns and labels:
[1] = Aqueous solubility of saturated solution at 21 °C (phosphorus determination by molybdenum blue spectrophotometry); conditions: for solubility at 30 min: Milli-Q water, unbuffered, thermodynamic from solid; for solubility at 30 min / pH of saturated solution: 21 °C; for pH of saturated solution: saturated aqueous solution, agitation time 30 min
Procedure: (§1) A Jasco V-530 UV/Vis spectrophotometer was used for phosphorus determination at 880 nm wavelength. Filtered liquid samples were diluted to the appropriate volume with Milli-Q water and were digested with the persulphate oxidation technique in acidic medium at elevated temperature to convert aminobisphosponates to orthophosphate. In an acidic medium, ammonium molybdate and antimony potassium tartrate react with orthophosphate to form a phosphomolybdic acid that is reduced to intensively colored molybdenum blue by ascorbic acid [30].
(§2) The mixture containing an excess of the studied compound was first agitated for predetermined time with magnetic stirrer and before taking the sample mixture was allowed to stand for 24 h without stirring. The sample (about 5 mL) was taken from liquid above the solids, pH was measured and the sample was filtered through 0.2 µm membrane filter to remove any possible insoluble particles. The phosphorus concentration in the filtered sample solution was determined by using the spectrophotometric method described above.

[2] = Thermal analysis (TG/DTA and TGA 7); assay type: physicochemical; conditions: for Td: 5 °C/min; for Temp. range of 1st cleavage: lower limit taken at 0.5 wt-%; for Td (decomposition onset): average from both instruments; for Td (decomposition onset) / Temp. range of dehydration / onset T of dehydration: heating rate 5 °C/min
Procedure: Thermal decomposition paths with evaluation of crystal water content were obtained parallel with two instruments; Perkin Elmer STA 6000 thermogravimetric TG/DTA and Perkin Elmer TGA 7 analyzers (Perkin Elmer, Massachusetts, USA). Measurements were carried out in an open platinum crucible (the higher 5 mm crucible was used in TG/DTA and a shallower 2 mm crucible in TGA 7) under air atmosphere (flow rate of 45 mL/min) with a heating rate of 5 °C/min over the temperature range of 25−700 °C. The temperature calibration of STA 6000 was made using melting points of indium (156.60 °C) and zinc (419.5 °C) standards. For TGA 7 magnetic Curie-point calibration technique (Alumel, Ni, Perkalloy, Fe) was used. The weight balance of both instruments was calibrated by measuring a standard weight of 50 mg at room temperature. The sample weights used in the measurements were about 4–8 mg, and for each bisphosphonate, it was attempted to keep the same on both instruments. The melting/dehydration/decomposition behavior of the compounds was also visually monitored using a Stuart Scientific SMP3 melting point apparatus.

[3] = Effect of pH on aqueous solubility; conditions: for solubility at 30 min: water, pH adjusted with NaOH or HCl, 21 °C, thermodynamic from solid; for pH of solubility minimum: pH range 0.5 to 11.0
Procedure: as §1, §2

solubility at 30 min ([1]; water)	pH of saturated solution [1]	Onset temperature of first cleavage ([2]; TG/DTA, higher crucible)	Td ([2]; TG/DTA, higher crucible, air)	Temp. range of 1st cleavage ([2]; TG/DTA, higher crucible)	Onset temperature of first cleavage ([2]; TGA 7, shallow crucible)	Td ([2]; TGA 7, shallow crucible, air)	Temp. range of 1st cleavage ([2]; TGA 7, shallow crucible)	Td (decomposition onset) ([2]; air)	temperature of first decomposition step (cleavage of amino group / degradation) ([2]; thermogravimetry, air)	solubility at 30 min ([3]; pH 0, aqueous buffer)	solubility at 30 min ([3]; pH 1, aqueous buffer)	solubility at 30 min ([3]; pH 2, aqueous buffer)	solubility at 30 min ([3]; pH 3, aqueous buffer)	solubility at 30 min ([3]; pH 4, aqueous buffer)	solubility at 30 min ([3]; pH 5, aqueous buffer)	solubility at 30 min ([3]; pH 6, aqueous buffer)	solubility at 30 min ([3]; pH 7, aqueous buffer)	solubility at 30 min ([3]; pH 8, aqueous buffer)	solubility at 30 min ([3]; pH 9, aqueous buffer)	SMILES	also measured
39 µg/mL (≈ 93.4 µM)	7.79	178 °C	178 °C	150–248 °C	181 °C	181 °C	146–245 °C	180 °C	about 200 °C											NCCCCCCCCCCCCCCCC(O)(P(=O)(O)O)P(=O)(O)O [Compound 10, (16-Amino-1-hydroxyhexadecylidene)bisphosphonic acid]	
30 µg/mL (≈ 83 µM)	4.05	185 °C	185 °C	163–232 °C	191 °C	191 °C	155–221 °C	188 °C	about 200 °C	130 µg/mL (≈ 360 µM)	80 µg/mL (≈ 221 µM)	70 µg/mL (≈ 194 µM)	80 µg/mL (≈ 221 µM)	140 µg/mL (≈ 387 µM)	200 µg/mL (≈ 554 µM)	210 µg/mL (≈ 581 µM)	200 µg/mL (≈ 554 µM)	240 µg/mL (≈ 664 µM)	250 µg/mL (≈ 692 µM)	NCCCCCCCCCCCC(O)(P(=O)(O)O)P(=O)(O)O [Compound 9, (12-Amino-1-hydroxydodecylidene)bisphosphonic acid]	pH of solubility minimum [3]: ~2; solubility at 30 min ([3]; pH 10, aqueous buffer): 400 µg/mL (≈ 1110 µM); solubility at 30 min ([3]; pH 11, aqueous buffer): 470 µg/mL (≈ 1300 µM)

Second part, the molecule before the results:

SMILES	solubility at 30 min ([1]; water)	pH of saturated solution [1]	Onset temperature of first cleavage ([2]; TG/DTA, higher crucible)	Td ([2]; TG/DTA, higher crucible, air)	Temp. range of 1st cleavage ([2]; TG/DTA, higher crucible)	Onset temperature of first cleavage ([2]; TGA 7, shallow crucible)	Td ([2]; TGA 7, shallow crucible, air)	Temp. range of 1st cleavage ([2]; TGA 7, shallow crucible)	Td (decomposition onset) ([2]; air)	temperature of first decomposition step (cleavage of amino group / degradation) ([2]; thermogravimetry, air)	solubility at 30 min ([3]; pH 0, aqueous buffer)	solubility at 30 min ([3]; pH 1, aqueous buffer)	solubility at 30 min ([3]; pH 2, aqueous buffer)	solubility at 30 min ([3]; pH 3, aqueous buffer)	solubility at 30 min ([3]; pH 4, aqueous buffer)	solubility at 30 min ([3]; pH 5, aqueous buffer)	solubility at 30 min ([3]; pH 6, aqueous buffer)	solubility at 30 min ([3]; pH 7, aqueous buffer)	solubility at 30 min ([3]; pH 8, aqueous buffer)	solubility at 30 min ([3]; pH 9, aqueous buffer)	also measured
NCCCCCCCCC(O)(P(=O)(O)O)P(=O)(O)O [Compound 6, (9-Amino-1-hydroxynonylidene)bisphosphonic acid]	2070 µg/mL (≈ 6470 µM)	2.51	77 °C	190 °C	33–175 °C	84 °C	191 °C	33–173 °C	191 °C		2100 µg/mL (≈ 6580 µM)	1150 µg/mL (≈ 3600 µM)	860 µg/mL (≈ 2690 µM)	1170 µg/mL (≈ 3670 µM)	1080 µg/mL (≈ 3380 µM)	1110 µg/mL (≈ 3480 µM)	1230 µg/mL (≈ 3850 µM)	1190 µg/mL (≈ 3730 µM)	1230 µg/mL (≈ 3850 µM)	1190 µg/mL (≈ 3730 µM)	solubility at 30 min ([3]; pH 10, aqueous buffer): 1200 µg/mL (≈ 3760 µM); solubility at 30 min ([3]; pH 11, aqueous buffer): 1270 µg/mL (≈ 3980 µM); Temp. range of dehydration ([2]; air): 33–175 °C; onset T of dehydration ([2]; air): 81 °C; temperature at which dehydration is initiated ([2]; thermogravimetry, air): ~ 90 °C
NCCCCCCCCCC(O)(P(=O)(O)O)P(=O)(O)O [Compound 7, (10-Amino-1-hydroxydecylidene)bisphosphonic acid]	217 µg/mL (≈ 651 µM)	3.28	185 °C	185 °C	175–211 °C	189 °C	189 °C	161–227 °C	187 °C	about 200 °C											water solubility (in words) ([1]; water): hundreds of milligrams
NCCCCCCCCCCC(O)(P(=O)(O)O)P(=O)(O)O [Compound 8, (11-Amino-1-hydroxyundecylidene)bisphosphonic acid]	58 µg/mL (≈ 167 µM)	4.71	73 °C	199 °C	50–146 °C	70 °C	204 °C	39–149 °C	202 °C	200 °C	180 µg/mL (≈ 518 µM)	80 µg/mL (≈ 230 µM)	50 µg/mL (≈ 144 µM)	80 µg/mL (≈ 230 µM)	180 µg/mL (≈ 518 µM)	230 µg/mL (≈ 662 µM)	270 µg/mL (≈ 777 µM)	290 µg/mL (≈ 835 µM)	250 µg/mL (≈ 720 µM)	290 µg/mL (≈ 835 µM)	pH of solubility minimum [3]: ~2; solubility at 30 min ([3]; pH 10, aqueous buffer): 400 µg/mL (≈ 1150 µM); solubility at 30 min ([3]; pH 11, aqueous buffer): 370 µg/mL (≈ 1070 µM); Temp. range of dehydration ([2]; air): 40–148 °C; onset T of dehydration ([2]; air): 72 °C
